Laboratory results published in publication PMC9519446, “Discovery of an Orally Active Benzoxaborole Prodrug Effective in the Treatment of Chagas Disease in Non-human Primates” (Nature microbiology, 2022).
Where “and” joins values, the source holds several entries; their conditions need not be identical. Identical values can stand only once. Like-named read-outs stand apart in the source and are kept apart here.

Columns and labels:
[1] = tested on: T. cruzi Brazil strain; design: method as in PMID 23945371; settings: cited from earlier work
[2] = tested on: T. cruzi CL strain in Vero cells; assay: RNA-seq: parasite mRNA relative to host cell (Vero) mRNA; format: cell-based, Trypanosoma cruzi
Method: The drug concentration used for treatment was set at 5 times the IC50. Samples were collected at several time points for RNA extraction as previously described. rRNA-depleted RNA library construction and RNA sequencing using Illumina Nextseq 75PE was carried out by Georgia Genomics and Bioinformatics Core (GGBC, University of Georgia, Georgia). […] The mapping rate was quantified by HTseq v0.6.1 [51].

[3] = tested on: T. cruzi; settings: cited from earlier work
[4] = High dose 7-day toxicology study with exposure; settings: 7-day toxicology studies / rats
[5] = tested on: T. cruzi intracellular amastigotes; assay: In vitro anti-T. cruzi intracellular amastigote growth inhibition assay (tdTomato fluorescence over 72 hours, Vero cells); format: cell-based, Trypanosoma cruzi; settings: Trypanosoma cruzi, Vero
Method: (§1) The in vitro anti-T. cruzi amastiogote activity assay was performed and optimized based on the protocol described previously. The change in tdTomato fluorescence intensity was determined as a measurement of growth over 72 hours of culture. For assaying drug effects on extracellular amastigotes, trypomastigotes were collected from infected Vero cell cultures and converted in acidic media as previously described. Amastigotes (50,000/well) were incubated with 2-fold serial dilutions of compounds for 48 hours. The ATP production was used as an indication of growth in this case, and was measured by ATPlite Luminescence ATP Detection Assay System (PerkinElmer). Both fluorescence and luminescence were read using a BioTek Synergy Hybrid Multi-Mode reader equipped with the software Gene5 v 2.0 (BioTek). The dose-response curve was generated by […] analysis with GraphPad Prism v9.4.0 (GraphPad Software).

[6] = tested on: broad array of mammalian enzymes, receptors and ion channels; assay: Preliminary safety pharmacology panel; format: binding
[7] = tested on: representative cytochrome P450 enzymes; assay: Cytochrome P450 inhibition; format: in vitro ADME; settings: 10 uM
[8] = In vitro micronucleus study; format: cell-based
[9] = Ames study
[10] = tested on: T. cruzi Brazil strain; assay: Mouse cure assays (daily oral treatment, immunosuppression, qPCR of skeletal muscle, blood microscopy, hemoculture); format: in vivo, C57BL/6 mice; settings: individual mice
Method: Male or female C57BL/6 mice were intraperitoneally infected with 10^4 trypomastigotes of the Brazil strain. Mouse infection was confirmed at 25-30 dpi by detection of CD8^+ T cells specific against the T. cruzi TSKb20 peptide in blood. Compounds resuspended in 1% carboxymethyl cellulose and 0.1% Tween 80, were administered daily by gavage at the specified concentrations. In order to optimally detect persistent infection, immune responses in the mice were suppressed by intraperitoneal injection of four doses of cyclophosphamide every 2-3 days (200 mg/kg/day), beginning one week after the end of therapeutic treatment. At the end of the immunosuppression regimen, peripheral blood was checked under light microscope for parasites and cultured in LDNT media. Mouse skeletal muscle samples were obtained at the end of the immunosuppression and processed for T. cruzi-DNA detection by qPCR as previously described.

[11] = tested on: TcCBP KO T. cruzi intracellular amastigotes; assay: microbe, parasite or virus in culture; format: cell-based; settings: Trypanosoma cruzi, read-out: TcCBP KO IC50
Method: as §1
The CBPs knockout was produced using ribonucleoprotein (RNP) complexes as previously described. Briefly, Brazil tdTomato strain epimastigotes were electroporated with RNP complexes containing SaCas9 and an sgRNA targeting CBP gene TcBrA4_0048170, plus a repair template containing stop codons in all three reading frames and the M13 sequence for use as a PCR anchor. The sgRNA targeted the ‘[…]” sequence. After 2 days of recovery, single-cell clones were derived by depositing epimastigotes into a 96-well plate at a density of 0.5 cell/well by using a MoFlo Astrios EQ cell sorter (Beckman Coulter). DNA isolation was performed for clones, and primer pair of 5’-[…]-3’ and 5’- […] -3’ was used for amplifying the wild type allele, while primer pair of M13-F: 5’- […] -3’ and 5’- […] -3’ was used for amplifying the mutant allele.

[12] = tested on: CPSF3-OE T. cruzi intracellular amastigotes; assay: microbe, parasite or virus in culture; format: cell-based; settings: Trypanosoma cruzi, read-out: CPSF3-OE IC50, intracellular amastigotes
Method: as §1
The CPSF3 gene was amplified using primers ‘[…]’ and ‘[…]’, and integrated into the pTrex vector [47] by NEBuilder HiFi DNA assembly (New England Biolabs). The construct of pTrex-CPSF was then transfected into Brazil tdTomato epimastigotes and selected by 60ug/ml blasticidin.
To confirm the CPSF overexpression in the selected transfectants, RNA was extracted as previously described and converted to cDNA using SuperScript Reverse Transcriptase (Invitrogen). Quantitative PCR reactions were performed in triplicate on the C1000 Touch Bio-Rad CFX96 real-time PCR detection system for CPSF using primer sets CPSF-1 (5'-[…]-3' and 5'-[…]-3') and CPSF-2 (5'-[…]-3' and 5'-[…]-3') in both control and CPSF over-expressing parasites, and the expression level was normalized to tubulin which was amplified using primers: ‘[…]’ and ‘[…]’.

[13] = in vivo
[14] = in vitro, Fig. 1a, Extended Data Fig. 1a, read-out: T. cruzi IC50

O=C(Cn1ccnc1[N+](=O)[O-])NCc1ccccc1 [benznidazole, reference compound]
cure with 20 days of treatment ([1]; mice): only partially effective in generating cure
RNA-seq reads mapped to African green monkey ([2]; 0hpt): 52
RNA-seq reads mapped to T.cruzi CL Brener ([2]; 0hpt): 17
RNA-seq reads unmapped ([2]; 0hpt): 31
RNA-seq reads mapped to African green monkey ([2]; 12hpt): 61
RNA-seq reads mapped to T.cruzi CL Brener ([2]; 12hpt): 14
RNA-seq reads unmapped ([2]; 12hpt): 25
RNA-seq reads mapped to African green monkey ([2]; 24hpt): 62
RNA-seq reads mapped to T.cruzi CL Brener ([2]; 24hpt): 12
RNA-seq reads unmapped ([2]; 24hpt): 27
failures in treatment trial ([3]; T. cruzi-infected NHPs, ref Tarleton, et al., in preparation): > 60%
cure rate ([3]; cyno macaques, ref unpublished result of the authors): ~ 30%

Cc1c(C(=O)N[C@H](C(=O)OCc2ccc(F)cc2)C(C)(C)O)ccc2c1B(O)OC2 [AN14817]
dose proportionality of exposure [4]: non-dose proportional exposure
activity at 0.00407 µM ([5]; 72 h, read-out: % of maximum, WT, [uM] -2.39 [sic], single replicates): 79%
IC50 ([5]; read-out: WT IC50, WT intracellular amastigotes, control of CPSF3-OE comparison): 0.0063 µM
IC50 ([5]; read-out: WT IC50, WT intracellular amastigotes, control of TcCBP KO comparison): 0.0063 µM
IC50 [5, 14]: 0.012 µM
affinity for mammalian enzymes, receptors and ion channels [6]: little to no affinity
inhibition of representative cytochrome P450 enzymes [7]: did not demonstrate significant inhibition
genotoxicity, in vitro micronucleus [8]: non-genotoxic
genotoxicity, Ames [9]: non-genotoxic
Parasite equivalent/ 50 ng of DNA of skeletal muscle ([10]; Fig. 3b, mice treated for 40 days): 0.12 Parasite equivalent/ 50 ng of DNA and 0.09 Parasite equivalent/ 50 ng of DNA and 0.00383 Parasite equivalent/ 50 ng of DNA and 0.0341 Parasite equivalent/ 50 ng of DNA and 0.00725 Parasite equivalent/ 50 ng of DNA and 0.00351 Parasite equivalent/ 50 ng of DNA and 0.0145 Parasite equivalent/ 50 ng of DNA and 0.17 Parasite equivalent/ 50 ng of DNA
Parasite equivalent/ 50 ng of DNA of skeletal muscle ([10]; Fig. 3c, mice treated for 20 days): 0.30 Parasite equivalent/ 50 ng of DNA and 0.59 Parasite equivalent/ 50 ng of DNA and 0.42 Parasite equivalent/ 50 ng of DNA and 0.29 Parasite equivalent/ 50 ng of DNA and 0.40 Parasite equivalent/ 50 ng of DNA
IC50 [11]: 2.2 µM
IC50 [12]: 0.0248 µM

O=C(Nc1ccc2c(c1)B(O)OC2)c1ccc(F)cc1C(F)(F)F [AN4169]
IC50 [5, 14]: 0.35 µM
cure of infected mice ([1]; mice infected with the T. cruzi Brazil strain): 100%
rodent tolerability [13]: insufficient therapeutic margin
